Key:
Tg female mice = assay: EAE in BV8S2 transgenic (Tg) female mice; format: in vivo; details: for inhibition of EAE: Tg females
spinal cord mRNA = assay: RNase protection assay of chemokine, chemokine receptor and cytokine mRNA in spinal cords of Tg females with EAE; format: in vivo, mice; details: 0.36 mg pellet
Description: RNase protection assay. Total RNA was extracted from frozen spinal cords or lymph node cells using the STAT-60 reagent (Tel-Test, Inc., Friendswood, Tex.). Chemokine expression was determined by using the RiboQuant RPA kit (PharMingen) according to the manufacturer's instructions. A multiprobe set detected the following chemokine transcripts: C—X—C chemokines: MIP-2 and IP-10; C—C chemokines: RANTES, MIP-1α, MCP-1, and TCA-3; and C chemokine: Ltn. The chemokine receptor set detected the following transcripts: CCR1, CCR1b, CCR2, CCR3, CCR4, CCR5. Using RPA multiprobe it was possible to detect the following cytokines: IL-4, IL-10, TNF-α, LTβ, IFN-γ. The sample loading was normalized by the housekeeping gene, L32, included in each template set. RPA analysis was performed on […] total RNA hybridized with probes labeled with [^32P]UTP. After digestion of ssRNA, the RNA pellet was solubilized and resolved on a 5% sequencing gel. Controls included the probe set hybridized to transfer RNA only, appropriate control RNA which serves as integrity control for the RNA sample, and yeast tRNA as a background control. For quantification, gels were exposed by phosphorimaging (Bio-Rad Laboratories, Hercules, Calif.) and radioactivity in individual bands (after background subtraction) in comparison with L32 was assessed with Quantity One software (Bio-Rad Laboratories, Hercules, Calif.).
To optimize detection of clinically-related changes, chemokine expression was compared in 17β-estradiol protected versus sham pellet implanted mice during the peak acute phase of disease (16-17 days after immunization with MBP-Ac1-11 peptide/CFA) and during the chronic phase (28 days after immunization). […] A quantitative method—the RNase protection assay—was employed to examine RNA synthesis for the following chemokines: RANTES, MIP-1α, MCP-1, and TCA-3 (C—C-subfamily); and MIP-2 and IP-10 (C—X—C-subfamily). The tissue sample for RPA was prepared by homogenization of whole spinal cord and total cellular RNA was extracted.

male SJL mice = assay: EAE induced with PLP 139-151 in male SJL mice; format: in vivo
[1] = system: spinal cord mononuclear cells; assay: Mononuclear cell infiltration into spinal cords of Tg females with EAE; format: in vivo, mice; details: 0.36 mg pellet
Description: Induction of active EAE. EAE was induced, and disease assessed, essentially as described in Example II. Disease onset was defined as the first day of clinical signs, peak—acute phase of EAE—as maximum severity of clinical signs (day 16-17 after immunization with encephalitogenic peptide) and recovery as day 28 post-immunization, when clinical severity of EAE was diminished. The cumulative disease index (CDI) was determined for each mouse by summing the daily clinical scores. Mice selected from control, ovariectomized, and 17β-estradiol treated groups were sacrificed and spinal cords were isolated by insufflation and frozen at −70 C or mononuclear cells were isolated over a Percoll step gradient and counted as described in Offner et al., J. Immunol. 161:2178-2186 (1998). Lymph nodes (LN) or spleens (SPL) were removed surgically and passed through a wire mesh screen to obtain a single-cell suspension. Frozen spinal cords were subsequently thawed and evaluated for expression of chemokines, chemokine receptors and cytokines by the RNase protection assay.

DLN cells = assay: PLP 139-151 induced cytokine production by DLN cells (ELISA); format: in vivo, mice; details: 48-72 hours after PLP 139-151 stimulation
Description: Cytokine detection by ELISA. DLN cells were cultured at 4×10^6/ml and stimulated with the appropriate antigen in 24 well culture plates. Cell culture supernatants were recovered between 48-72 hr and frozen at −70° C. until needed for the cytokine assay. Measurement of cytokines was performed by ELISA using cytokine specific capture and detection antibodies (Pharmingen). Standard curves for each assay were generated using recombinant mouse cytokines (Pharmingen), and the concentration of cytokines in the cell supernatants was determined by interpolation from the appropriate standard curve. IFN-γ, TNF-α and IL-12 were chosen as representative Th1 cytokines, while IL-4 and IL-10 were measured as representative Th2 cytokines.
To determine if low dose estrogen therapy altered cytokine secretion patterns, DLN cells were prepared from individual mice at the peak of clinical EAE and cytokine levels were measured 48-72 hours after in vitro stimulation with PLP 139-151. IFN-γ, IL-12, and TNF-α were used as representative Th1 cytokines while IL-4, and IL-10 were used as representative Th2 cytokines. […] Despite the lack of statistical significance, the trend towards higher Th1 and lower Th2 cytokines points towards a subtle shift in the Th1/Th2 balance. The shift can be seen more clearly when the cytokine response of each individual mouse is plotted as a ratio of IFN-γ to IL-10 (FIG. 5C). There was a marked decrease in the frequency of high Th1 responder mice in the E2 and E3 treated groups when compared to placebo animals that approached significance (p=0.09 for the 5.0 mg E3 treated mice). Additionally, no informative trends were detected in IL-4 secretion (FIG. 5D), and TNF-α secretion was very often below the limits of detection for the assay (<31.25 pg/ml). Modest changes in cytokine responses induced by low dose estrogen therapy were also observed in the B10.PL model and were consistent with the data described for the SJL model.

[2] = system: draining lymph node (LN) cells; assay: MOG 35-55 stimulated proliferation of draining lymph node cells; format: in vivo; details: WT and cytokine deficient mice, 2.5 mg pellet
Description: Proliferation assay. Proliferation assays were performed on draining lymph node (DLN) and spleen (SP) cells essentially as described in Examples I and II, using MOG 35-55 as the test antigen. […] Proliferation of draining lymph node (LN) cells from either untreated or E2 treated mice was measured to determine if E2 could alter the ability of T lymphocytes to recognize and respond to the immunizing antigen. LN cells were isolated from three representative mice for each group and the cells pooled prior to stimulation with MOG 35-55 for 72 hr.

[3] = 0.36 mg pellet, intact Tg females (Example III)
[4] = non-ovariectomized Tg females, BV8S2 with weekly boosting, E2 0.36 mg pellets

Compound: C[C@]12CC[C@@H]3c4ccc(O)cc4CC[C@H]3[C@@H]1CC[C@@H]2O [17β-estradiol]
- CDI (Tg female mice; [3]): 40.4 ± 7.1
- Incidence (Tg female mice; [3]): 15/18
- Onset (Tg female mice; [3]): 17.4 ± 1.8
- Peak (Tg female mice; [3]): 2.5 ± 0.5
- inhibition of EAE (Tg female mice; 0.36 mg pellets): only moderate inhibition
- inhibition of EAE (Tg female mice; 15 mg pellets): marked but incomplete inhibition of EAE
- Average CDI (10-30) (Tg female mice; [4]): 37.3 ± 6.2^A
- Incidence (Tg female mice; [4]): 25/33
- Mortality (Tg female mice; [4]): 1/33
- Onset (Tg female mice; [4]): 15.1 ± 2.1A
- Peak (Tg female mice; [4]): 3.6 ± 0.7^A
- LT-β, TNF-α and IFN-γ message in spinal cord at peak of EAE (spinal cord mRNA): significantly inhibited
- chemokine mRNA expression in spinal cord (RANTES, MIP-1α, MIP-2, IP-10, MCP-1) (spinal cord mRNA; intact Tg females, peak of disease p<0.001): profoundly lower levels
- chemokine mRNA expression in spinal cord (spinal cord mRNA; ovariectomized females): strongly inhibited
- mRNA levels for CCR1, CCR2 and CCR5 in spinal cord (spinal cord mRNA; p<0.001): strongly inhibited
- CDI (male SJL mice; 0.36 mg/pellet): 6.4 ± 5.1
- Incidence (male SJL mice; 0.36 mg/pellet): 3/4
- Incidence (%) (male SJL mice; 0.36 mg/pellet): 75%
- Onset (male SJL mice; 0.36 mg/pellet): 15.3 ± 3.2 days
- Peak (disease score) (male SJL mice; 0.36 mg/pellet): 2.1 ± 2.4
- Incidence (male SJL mice; 2.5 mg/pellet): 0/4
- Incidence (%) (male SJL mice; 2.5 mg/pellet): 0%
- Mean clinical score at time of cord removal [1]: 1.3
- Number of cells/cord [1]: 10000 cells/cord
- prevention of infiltration of mononuclear cells into spinal cords [1]: approximately 60%
- IL-10 secretion by DLN cells (DLN cells): modest increase
- IL-12 secretion by DLN cells (DLN cells): small decrease
- secretion of IFN-γ by DLN cells (DLN cells; p>0.10): consistently lower
- LN proliferation response to MOG 35-55 [2]: no effect

From patent US7579006B2, “Method of treating immune pathologies with low dose estrogen” (Oregon Health and Science University, priority 2000, dated 2009)
